Measurements as given in US12384818B2, “Cyclin-dependent kinase 5 (CDK5) inhibitory peptides” (Massachusetts Institute of Technology, priority 2017, dated 2025).
Ends that are not written are not given here. Peptide text beside a SMILES is read from it. * marks the point of attachment. FITC = O=C1OC2(c3ccc(O)cc3Oc3cc(O)ccc32)c2ccc(NC(=S)*)cc21; Ahx = NCCCCCC(=O)O

Columns and labels:
[1] = tested on: Human iPSC-derived neural progenitor cells; conditions: 1 μM, 2 hr; FIG. 9B
[2] = Blood brain barrier penetration in mice, targeted mass spectrometry of brain lysate; type: in vivo; conditions: 24 hours; for #Spec (number of spectra) / Area (peak area): tryptic fragment in brain lysate, mice 40 mg/kg i.p.
Experimental: Wild type mice were intraperitoneally injected with a single dose (40 mg/kg) of Cdk5i, and were sacrificed 24 hours after the injection. Prior to extracting the brain, mice were transcardially perfused with 40 mL of cold phospho-buffered saline (PBS) to ensure clearance of any Cdk5i circulating in the blood that may not have crossed the blood brain barrier. After the perfusion, the brains were dissected into two hemispheres and one hemisphere was lysed with cold lysis buffer (RIPA) to extract total protein. Total protein was then briefly run on a 12% acrylamide gel to separate large proteins and then digested with a trypsin enzyme and subjected to targeted mass spectrometry analysis using Cdk5i peptide sequence of SEQ ID NO. 3 linked to a GGG spacer/linker and FITC (Cdk5i sequence: FITC-GGG-SEQ ID NO. 3).
A substantial portion (11 amino acids out of 12) of the Cdk5i sequence including the conjugated tat protein sequence were detected using mass spectrometry based on the number of spectra and peak area. Using targeted mass spectrometry, brain lysate from mice injected with Cdk5i show an enrichment for Cdk5i based on # of spectra and peak area (2nd row of data in Table 1).

Row | Compound | penetration of plasma membrane (intracellular FITC signals) [1] | #Spec (number of spectra) [2] | Area (peak area) [2] | portion of the Cdk5i sequence detected in brain ([2]; wild type mice, single dose 40 mg/kg intraperitoneally, perfused brain, mass spectrometry) | blood brain barrier penetration / enrichment in brain lysate ([2]; wild type mice, single dose 40 mg/kg intraperitoneally, targeted mass spectrometry)
1 | CC[C@H](C)[C@H](NC(=O)CNC(=O)[C@H](Cc1ccccc1)NC(=O)[C@H](C)NC(=O)[C@H](CCCNC(=N)N)NC(=O)[C@H](C)NC(=O)CCCCCNC(=S)Nc1ccc2c(c1)C(=O)OC21c2ccc(O)cc2Oc2cc(O)ccc21)C(=O)N1CCC[C@H]1C(=O)N[C@H](C(=O)N[C@@H](CCCNC(=N)N)C(=O)N[C@@H](CS)C(=O)N[C@@H](Cc1ccc(O)cc1)C(=O)N[C@@H](CO)C(=O)N[C@@H](Cc1ccc(O)cc1)C(=O)NCC(=O)N[C@@H](CCCNC(=N)N)C(=O)N[C@@H](CCCCN)C(=O)N[C@@H](CCCCN)C(=O)N[C@@H](CCCNC(=N)N)C(=O)N[C@@H](CCCNC(=N)N)C(=O)N[C@@H](CCC(N)=O)C(=O)N[C@@H](CCCNC(=N)N)C(=O)N[C@@H](CCCNC(=N)N)C(=O)N[C@@H](CCCNC(=N)N)C(=O)O)C(C)C [FITC-Ahx-Cdk5i-Tat] ({FITC-Ahx}-ARAFGIPVRCYSYGRKKRRQRRR-OH) | able to penetrate plasma membrane | – | – | – | –
2 | ARAFGIPVR | – | 12 | 3.83E+07 | – | –
3 | ARAFGIPVRCYS [CDK5i] | – | – | – | 11 amino acids out of 12 | enrichment
4 | R.AFGIPVRCYSYGR.K: tryptic fragment of Cdk5i-Tat detected in mouse brain lysate by mass spectrometry | – | 22 | 8.42E+08 | – | –
5 | R.CYSYGRK.K: tryptic fragment of Cdk5i-Tat detected in mouse brain lysate by mass spectrometry | – | 12 | 6.13E+08 | – | –
